Measurements published in PubChem BioAssay (NCI).
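Grown in 96-well plates, cells were treated for 48 hours with each compound at five concentrations. Insufficient inhibition: endpoint recorded as highest concentration tested. The concentration for full growth arrest is given as TGI.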

Experiments:
Assay in all cases: DTP human tumour cell line panel, 48 h
IGROV1 ovarian = test system: IGROV1 ovarian
SK-OV-3 ovarian = test system: SK-OV-3 ovarian
SK-MEL-5 melanoma = test system: SK-MEL-5 melanoma
RXF-631 renal = test system: RXF-631 renal
HCT-15 colon = test system: HCT-15 colon
UO-31 renal = test system: UO-31 renal
SF-268 CNS = test system: SF-268 CNS
DMS 273 small cell lung = test system: DMS 273 small cell lung
HT29 colon = test system: HT29 colon
DLD-1 colon = test system: DLD-1 colon
UACC-62 melanoma = test system: UACC-62 melanoma
LOX IMVI melanoma = test system: LOX IMVI melanoma
LXFL 529 NSCLC = test system: LXFL 529 NSCLC
U251 CNS = test system: U251 CNS
HL-60(TB) leukemia = test system: HL-60(TB) leukemia
COLO 205 colon = test system: COLO 205 colon
M14 melanoma = test system: M14 melanoma
SF-539 CNS = test system: SF-539 CNS
SK-MEL-28 melanoma = test system: SK-MEL-28 melanoma
786-0 renal = test system: 786-0 renal
RPMI-8226 leukemia = test system: RPMI-8226 leukemia
HCT-116 colon = test system: HCT-116 colon
OVCAR-8 ovarian = test system: OVCAR-8 ovarian
NCI-H460 lung = test system: NCI-H460 lung
RXF 393 renal = test system: RXF 393 renal
CCRF-CEM leukemia = test system: CCRF-CEM leukemia
DMS 114 small cell lung = test system: DMS 114 small cell lung
XF 498 CNS = test system: XF 498 CNS
SNB-19 CNS = test system: SNB-19 CNS
NCI-H522 lung = test system: NCI-H522 lung
K-562 leukemia = test system: K-562 leukemia
ACHN renal = test system: ACHN renal
TK-10 renal = test system: TK-10 renal
EKVX NSCLC = test system: EKVX NSCLC
M19-MEL melanoma = test system: M19-MEL melanoma
HOP-92 NSCLC = test system: HOP-92 NSCLC
HOP-18 NSCLC = test system: HOP-18 NSCLC
A549 NSCLC = test system: A549 NSCLC
MOLT-4 leukemia = test system: MOLT-4 leukemia
CAKI-1 renal = test system: CAKI-1 renal
KM20L2 colon = test system: KM20L2 colon
SN12C renal = test system: SN12C renal
SW-620 colon = test system: SW-620 colon
KM12 colon = test system: KM12 colon
OVCAR-5 ovarian = test system: OVCAR-5 ovarian
HCC-2998 colon = test system: HCC-2998 colon
UACC-257 melanoma = test system: UACC-257 melanoma
OVCAR-3 ovarian = test system: OVCAR-3 ovarian
MALME-3M melanoma = test system: MALME-3M melanoma
SF-295 CNS = test system: SF-295 CNS
NCI-H23 lung = test system: NCI-H23 lung
SNB-75 CNS = test system: SNB-75 CNS
HOP-62 NSCLC = test system: HOP-62 NSCLC
SNB-78 CNS = test system: SNB-78 CNS
SK-MEL-2 melanoma = test system: SK-MEL-2 melanoma
OVCAR-4 ovarian = test system: OVCAR-4 ovarian
A498 renal = test system: A498 renal
SR leukemia = test system: SR leukemia
NCI-H226 lung = test system: NCI-H226 lung

Cn1nc(-c2ccccc2)c(C(=O)/C=C/c2ccc(F)cc2)c(N2CCCCC2)c1=O gave a TGI (IGROV1 ovarian) of 38.2 µM, a TGI (SK-OV-3 ovarian) of 70.1 µM and a TGI (SK-MEL-5 melanoma) of 19.7 µM. The TGI (RXF-631 renal) was 53.6 µM, the TGI (HCT-15 colon) was > 100 µM and the TGI (UO-31 renal) was 19.1 µM. It also gave a TGI (SF-268 CNS) of 37 µM, a TGI (DMS 273 small cell lung) of 28.8 µM and a TGI (HT29 colon) of 20.2 µM. It also gave a TGI (DLD-1 colon) of 16.6 µM, a TGI (UACC-62 melanoma) of 30 µM and a TGI (LOX IMVI melanoma) of 15.4 µM. The TGI (LXFL 529 NSCLC) was 20.7 µM, the TGI (U251 CNS) was 27.7 µM and the TGI (HL-60(TB) leukemia) was 3.28 µM. It also gave a TGI (COLO 205 colon) of 14.1 µM, a TGI (M14 melanoma) of 28.6 µM and a TGI (SF-539 CNS) of 16.4 µM. It also gave a TGI (SK-MEL-28 melanoma) of 16.2 µM, a TGI (786-0 renal) of 18 µM and a TGI (RPMI-8226 leukemia) of 6.98 µM. For the same compound, the TGI (HCT-116 colon) was 11.5 µM, the TGI (OVCAR-8 ovarian) was 75.6 µM and the TGI (NCI-H460 lung) was 18.1 µM. For the same compound, the TGI (RXF 393 renal) was 9.86 µM, the TGI (CCRF-CEM leukemia) was 6.46 µM and the TGI (DMS 114 small cell lung) was 17.1 µM. It also gave a TGI (XF 498 CNS) of 60.2 µM, a TGI (SNB-19 CNS) of 55.4 µM and a TGI (NCI-H522 lung) of 28.7 µM. It also gave a TGI (K-562 leukemia) of 13 µM, a TGI (ACHN renal) of 27.7 µM and a TGI (TK-10 renal) of 69.9 µM. The TGI (EKVX NSCLC) was 72.3 µM, the TGI (M19-MEL melanoma) was 35.3 µM and the TGI (HOP-92 NSCLC) was 20 µM. The TGI (HOP-18 NSCLC) was 20.6 µM, the TGI (A549 NSCLC) was 55.1 µM and the TGI (MOLT-4 leukemia) was 7.09 µM. The TGI (CAKI-1 renal) was 27.3 µM, the TGI (KM20L2 colon) was 19.2 µM and the TGI (SN12C renal) was > 100 µM. For the same compound, the TGI (SW-620 colon) was 45.3 µM.
For Oc1cc(O)c(Oc2cccc(O)c2O)c(O)c1, the TGI (IGROV1 ovarian) was > 100 µM, the TGI (SK-OV-3 ovarian) was > 100 µM and the TGI (KM12 colon) was > 100 µM. For the same compound, the TGI (SK-MEL-5 melanoma) was 38.7 µM, the TGI (RXF-631 renal) was > 100 µM and the TGI (HCT-15 colon) was > 100 µM. For the same compound, the TGI (UO-31 renal) was > 100 µM, the TGI (SF-268 CNS) was > 100 µM and the TGI (DMS 273 small cell lung) was > 100 µM. For the same compound, the TGI (OVCAR-5 ovarian) was > 100 µM, the TGI (HT29 colon) was > 100 µM and the TGI (HCC-2998 colon) was > 100 µM. The TGI (UACC-62 melanoma) was > 100 µM, the TGI (UACC-257 melanoma) was > 100 µM and the TGI (OVCAR-3 ovarian) was > 100 µM. The TGI (MALME-3M melanoma) was > 100 µM, the TGI (LXFL 529 NSCLC) was > 100 µM and the TGI (SF-295 CNS) was > 100 µM. For the same compound, the TGI (U251 CNS) was > 100 µM, the TGI (HL-60(TB) leukemia) was > 100 µM and the TGI (COLO 205 colon) was > 100 µM. For the same compound, the TGI (M14 melanoma) was > 100 µM, the TGI (NCI-H23 lung) was > 100 µM and the TGI (SF-539 CNS) was > 100 µM. The TGI (SK-MEL-28 melanoma) was > 100 µM, the TGI (786-0 renal) was > 100 µM and the TGI (RPMI-8226 leukemia) was > 100 µM. The TGI (SNB-75 CNS) was > 100 µM, the TGI (OVCAR-8 ovarian) was > 100 µM and the TGI (NCI-H460 lung) was > 100 µM. For the same compound, the TGI (RXF 393 renal) was > 100 µM, the TGI (CCRF-CEM leukemia) was > 100 µM and the TGI (DMS 114 small cell lung) was > 100 µM. The TGI (XF 498 CNS) was > 100 µM, the TGI (SNB-19 CNS) was > 100 µM and the TGI (HOP-62 NSCLC) was > 100 µM. The TGI (NCI-H522 lung) was > 100 µM, the TGI (K-562 leukemia) was > 100 µM and the TGI (SNB-78 CNS) was > 100 µM. For the same compound, the TGI (ACHN renal) was > 100 µM, the TGI (TK-10 renal) was > 100 µM and the TGI (EKVX NSCLC) was > 100 µM. For the same compound, the TGI (M19-MEL melanoma) was 45.9 µM, the TGI (HOP-92 NSCLC) was > 100 µM and the TGI (SK-MEL-2 melanoma) was > 100 µM. The TGI (OVCAR-4 ovarian) was 31.6 µM, the TGI (A498 renal) was > 100 µM and the TGI (HOP-18 NSCLC) was > 100 µM. The TGI (A549 NSCLC) was > 100 µM, the TGI (MOLT-4 leukemia) was > 100 µM and the TGI (CAKI-1 renal) was > 100 µM. For the same compound, the TGI (SN12C renal) was > 100 µM and the TGI (SW-620 colon) was > 100 µM.
In the case of CC1CC2CC(=O)CC3(C1)C2CCCN3CCCO (configuration not stated), the TGI (IGROV1 ovarian) is reported as > 100 µM, the TGI (SK-OV-3 ovarian) is reported as > 100 µM and the TGI (KM12 colon) is reported as > 100 µM. For the same compound, the TGI (SK-MEL-5 melanoma) was > 100 µM, the TGI (RXF-631 renal) was > 100 µM and the TGI (UO-31 renal) was > 100 µM. For the same compound, the TGI (SR leukemia) was > 100 µM, the TGI (SF-268 CNS) was > 100 µM and the TGI (DMS 273 small cell lung) was > 100 µM. The TGI (OVCAR-5 ovarian) was > 100 µM, the TGI (HT29 colon) was > 100 µM and the TGI (DLD-1 colon) was > 100 µM. The TGI (UACC-62 melanoma) was > 100 µM, the TGI (UACC-257 melanoma) was > 100 µM and the TGI (OVCAR-3 ovarian) was > 100 µM. For the same compound, the TGI (MALME-3M melanoma) was > 100 µM, the TGI (LOX IMVI melanoma) was > 100 µM and the TGI (LXFL 529 NSCLC) was > 100 µM. For the same compound, the TGI (SF-295 CNS) was > 100 µM, the TGI (U251 CNS) was > 100 µM and the TGI (HL-60(TB) leukemia) was > 100 µM. The TGI (COLO 205 colon) was > 100 µM, the TGI (M14 melanoma) was > 100 µM and the TGI (NCI-H23 lung) was > 100 µM. The TGI (SF-539 CNS) was > 100 µM, the TGI (SK-MEL-28 melanoma) was > 100 µM and the TGI (786-0 renal) was > 100 µM. The TGI (RPMI-8226 leukemia) was > 100 µM, the TGI (SNB-75 CNS) was > 100 µM and the TGI (HCT-116 colon) was > 100 µM. For the same compound, the TGI (OVCAR-8 ovarian) was > 100 µM, the TGI (NCI-H460 lung) was > 100 µM and the TGI (RXF 393 renal) was > 100 µM. The TGI (CCRF-CEM leukemia) was > 100 µM, the TGI (DMS 114 small cell lung) was > 100 µM and the TGI (XF 498 CNS) was > 100 µM. For the same compound, the TGI (SNB-19 CNS) was > 100 µM, the TGI (HOP-62 NSCLC) was > 100 µM and the TGI (NCI-H522 lung) was > 100 µM. The TGI (K-562 leukemia) was > 100 µM, the TGI (SNB-78 CNS) was > 100 µM and the TGI (ACHN renal) was > 100 µM. For the same compound, the TGI (TK-10 renal) was > 100 µM, the TGI (EKVX NSCLC) was > 100 µM and the TGI (M19-MEL melanoma) was > 100 µM. The TGI (HOP-92 NSCLC) was > 100 µM, the TGI (SK-MEL-2 melanoma) was > 100 µM and the TGI (OVCAR-4 ovarian) was > 100 µM. For the same compound, the TGI (A498 renal) was > 100 µM, the TGI (HOP-18 NSCLC) was > 100 µM and the TGI (A549 NSCLC) was > 100 µM. For the same compound, the TGI (MOLT-4 leukemia) was > 100 µM, the TGI (CAKI-1 renal) was > 100 µM and the TGI (SN12C renal) was > 100 µM. The TGI (NCI-H226 lung) was > 100 µM and the TGI (SW-620 colon) was > 100 µM.
